Data from BindingDB's records for doi:10.1016/0960-894X(95)00347-V (1995).

Tests used:
[1] = Inhibition of porcine Pancreatic elastase without pre-incubation
[2] = Inhibition of porcine Pancreatic elastase with 10 min pre-incubation
[3] = Inhibition of porcine Pancreatic elastase without pre-incubation; remark: listed apart in the source
[4] = as above; remark: listed apart in the source

Q: Which IC50 [1] does the source give for `Cc1ccc(S(=O)(=O)O[C@H]2C(=O)N3[C@@H](C(=O)OCOC(=O)C(C)(C)C)C(C)(C)S(=O)(=O)[C@H]23)cc1` [(2S,5R,6S)-3,3-Dimethyl-4,4,7-trioxo-6-(toluene-4-sulfonyloxy)-4lambda*6*-thia-1-aza-bicyclo[3.2.0]heptane-2-carboxylic acid 2,2-dimethyl-propionyloxymethyl ester] here?
A: 2100 nM

Q: What about the IC50 [2] of the same compound?
A: 490 nM

Q: With `Cc1ccc(S(=O)(=O)O[C@H]2C(=O)N3[C@@H](C(=O)OCc4ccccc4)C(C)(C)S(=O)(=O)[C@H]23)cc1` [(2S,5R,6S)-3,3-Dimethyl-4,4,7-trioxo-6-(toluene-4-sulfonyloxy)-4lambda*6*-thia-1-aza-bicyclo[3.2.0]heptane-2-carboxylic acid benzyl ester] as the compound, how does the IC50 [3] read?
A: 150 nM

Q: And the IC50 [4]?
A: 23000 nM

Q: Which IC50 [1] does the source give for `CC(C)(C)C(=O)OCOC(=O)[C@@H]1N2C(=O)[C@H](OS(=O)(=O)C(F)(F)F)[C@H]2S(=O)(=O)C1(C)C` [(2S,5R,6S)-3,3-Dimethyl-4,4,7-trioxo-6-trifluoromethanesulfonyloxy-4lambda*6*-thia-1-aza-bicyclo[3.2.0]heptane-2-carboxylic acid 2,2-dimethyl-propionyloxymethyl ester] here?
A: 1000 nM

Q: Which IC50 [1] does the source give for `CC1(C)[C@H](C(=O)OCc2ccccc2)N2C(=O)[C@H](OS(=O)(=O)C(F)(F)F)[C@H]2S1(=O)=O` [(2S,5R,6S)-3,3-Dimethyl-4,4,7-trioxo-6-trifluoromethanesulfonyloxy-4lambda*6*-thia-1-aza-bicyclo[3.2.0]heptane-2-carboxylic acid benzyl ester] here?
A: 680 nM

Q: Which results are given for `CC(C)(C)C(=O)OCOC(=O)[C@@H]1N2C(=O)[C@H](Cl)[C@H]2S(=O)(=O)C1(C)C` [(2S,5R,6S)-6-Chloro-3,3-dimethyl-4,4,7-trioxo-4lambda*6*-thia-1-aza-bicyclo[3.2.0]heptane-2-carboxylic acid 2,2-dimethyl-propionyloxymethyl ester]?
A: IC50 [3]: 220000 nM; IC50 [4]: 280000 nM

Q: What does the source list for `CC(C)(C)C(=O)OCOC(=O)[C@@H]1N2C(=O)[C@H](OS(C)(=O)=O)[C@H]2S(=O)(=O)C1(C)C` [(2S,5R,6S)-6-Methanesulfonyloxy-3,3-dimethyl-4,4,7-trioxo-4lambda*6*-thia-1-aza-bicyclo[3.2.0]heptane-2-carboxylic acid 2,2-dimethyl-propionyloxymethyl ester]?
A: IC50 [1]: 4300 nM; IC50 [2]: 540 nM

Q: Which IC50 [3] does the source give for `CC1(C)[C@H](C(=O)OCc2ccccc2)N2C(=O)[C@H](OS(C)(=O)=O)[C@H]2S1(=O)=O` [(2S,5R,6S)-6-Methanesulfonyloxy-3,3-dimethyl-4,4,7-trioxo-4lambda*6*-thia-1-aza-bicyclo[3.2.0]heptane-2-carboxylic acid benzyl ester] here?
A: 130 nM

Q: And the IC50 [4]?
A: 2200 nM
